Results reported in patent publication US7531555B2, “Compositions and methods for selective inhibition of nicotine acetylcholine receptors” (University of Florida Research Foundation, Inc., priority 2003, dated 2009).
Read-outs that look alike come from different tables or passages of the source.

How the values were obtained:
Rat α6/3β2β3 = target: T1, Rat α6/3β2β3 (Rattus norvegicus, UniProt P04757+P12390+P12391+P43143); assay: Voltage clamp of Xenopus oocytes expressing α6/3 chimera with β2 and β3; type: cell-based
T1 construct: evaluation of the effects of the α6 extracellular domain; remainder of rat α3 subunit (transmembrane and intracellular part); expressed in transfected cells; host or cells: Xenopus laevis oocytes injected with subunit cRNAs; α6/3 clone from Michael McIntosh (University of Utah), corrected in house by QuickChange
Method: (§1) Mature (>9 cm) female Xenopus laevis African frogs (NASCO, Ft. Atkinson, Wis.) were used as a source of oocytes. Prior to surgery, frogs were anesthetized by placing the animal in a 1.5 g/l solution of MS222 (3-aminobenzoic acid ethyl ester) for 30 minutes. Oocytes were removed from an incision made in the abdomen.
(§2) In order to remove the follicular cell layer, harvested oocytes were treated with 1.25 mg/ml collagenase from Worthington Biochemical Corporation (Freehold, N.J.) for 2 hours at room temperature in calcium-free Barth's solution (88 mM NaCl, 10 mM HEPES pH 7.6, 0.33 mM MgSO4, 0.1 mg/ml gentamicin sulfate). Subsequently, stage 5 oocytes were isolated and injected with 50 nl (5-20 ng) each of the appropriate subunit cRNAs. Recordings were made 2 to 15 days after injection.
(§3) Rat neuronal nAChR clones and mouse muscle nAChR cDNA clones were used. The wild-type clones were obtained from Dr. Jim Boulter (UCLA). The rat α6/3 (Dowell et al. J Neurosci, 2003, 23:8445-8452) clone was obtained from Michael McIntosh (University of Utah) and expressed in Xenopus oocytes in combinations with rat β2 and β3. […] The TM2 domain is understood to line the pore of the channel, with alpha helix structure. The 7′ position may actually be directed away from the actual pore lining, but this residue is highly conserved in all of the nAChR. It is valine in all of them except α9 (isoleucine) and β1, where it is alanine. The TM2 mutation in the α6/3 chimera was corrected by using QuickChange (Stratagene) according to their protocols. The corrected α6/3 chimera sequence was confirmed by restriction diagnostics and by automated fluorescent sequencing (University of Florida core facility). The corrected clone was expressed as above in Xenopus oocytes with β2 and β3 and compared to the wild-type α3 co-expressed with β2 and β3.
(§4) After linearization and purification of cloned cDNAs, RNA transcripts were prepared in vitro using the appropriate mMessage mMachine kit from Ambion Inc. (Austin, Tex.).
(§5) Electrophysiology. The majority of experiments were conducted using OpusXpress 6000A (Axon Instruments, Union City Calif.). OpusXpress is an integrated system that provides automated impalement and voltage clamp of up to eight oocytes in parallel. Cells were automatically perfused with bath solution, and agonist solutions were delivered from a 96-well plate. Both the voltage and current electrodes were filled with 3 M KCl. The agonist solutions were applied via disposable tips, which eliminated any possibility of cross-contamination. Drug applications alternated between ACh controls and experimental applications. Flow rates were set at 2 ml/min for experiments with α7 receptors and 4 ml/min for other subtypes. Cells were voltage-clamped at a holding potential of −60 mV. Data were collected at 50 Hz and filtered at 20 Hz. Agonist applications were 12 seconds in duration followed by 181-second washout periods for α7 receptors and 8 seconds with 241-second wash periods for other subtypes. For some experiments, particularly under conditions where residual inhibition precluded making repeated measurements from single cells (see below), manual oocyte recordings were made as previously described (Papke and Papke Br J of Pharmacol, 2002, 137:49-61). In brief, Warner Instruments (Hamden, Conn.) OC-725C oocyte amplifiers were used, and data were acquired with a minidigi or digidata 1200A with pClamp9 software (Axon Instruments). Sampling rates were between 10 and 20 Hz and the data were filtered at 6 Hz. […]

Rat α3β2β3 = target: T2, Rat α3β2β3 (Rattus norvegicus, UniProt P04757+P12390+P12391); assay: Voltage clamp of Xenopus oocytes expressing α3β2β3 nAChR; type: cell-based
T2 construct: expressed in transfected cells; host or cells: Xenopus laevis oocytes injected with subunit cRNAs; clones from Dr. Jim Boulter (UCLA)
Method: as §1, §2, §3, §4, §5

[1] = decrease in net charge, 100 μM ACh co-applied with TMPH, read-out: IC50 (area)
[2] = decrease in peak current amplitude, 100 μM ACh co-applied with TMPH, read-out: IC50 (peak)
[3] = inhibition still present after 5-minute wash, read-out: IC50 (recovery)

T2 sequence (P04757 26-499): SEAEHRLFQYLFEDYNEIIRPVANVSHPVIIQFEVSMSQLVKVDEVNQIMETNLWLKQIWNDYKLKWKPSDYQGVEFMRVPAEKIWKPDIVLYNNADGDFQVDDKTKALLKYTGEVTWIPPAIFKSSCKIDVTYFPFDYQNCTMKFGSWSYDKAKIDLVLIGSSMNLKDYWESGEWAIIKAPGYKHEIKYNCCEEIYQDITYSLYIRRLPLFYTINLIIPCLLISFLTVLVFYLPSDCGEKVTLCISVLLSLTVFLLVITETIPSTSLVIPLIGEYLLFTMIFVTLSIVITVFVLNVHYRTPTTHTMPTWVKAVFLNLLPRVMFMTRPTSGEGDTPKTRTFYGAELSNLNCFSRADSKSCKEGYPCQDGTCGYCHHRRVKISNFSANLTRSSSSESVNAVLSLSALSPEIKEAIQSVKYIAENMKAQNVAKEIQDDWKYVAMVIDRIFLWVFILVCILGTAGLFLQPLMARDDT
T2 sequence (P12390 25-500): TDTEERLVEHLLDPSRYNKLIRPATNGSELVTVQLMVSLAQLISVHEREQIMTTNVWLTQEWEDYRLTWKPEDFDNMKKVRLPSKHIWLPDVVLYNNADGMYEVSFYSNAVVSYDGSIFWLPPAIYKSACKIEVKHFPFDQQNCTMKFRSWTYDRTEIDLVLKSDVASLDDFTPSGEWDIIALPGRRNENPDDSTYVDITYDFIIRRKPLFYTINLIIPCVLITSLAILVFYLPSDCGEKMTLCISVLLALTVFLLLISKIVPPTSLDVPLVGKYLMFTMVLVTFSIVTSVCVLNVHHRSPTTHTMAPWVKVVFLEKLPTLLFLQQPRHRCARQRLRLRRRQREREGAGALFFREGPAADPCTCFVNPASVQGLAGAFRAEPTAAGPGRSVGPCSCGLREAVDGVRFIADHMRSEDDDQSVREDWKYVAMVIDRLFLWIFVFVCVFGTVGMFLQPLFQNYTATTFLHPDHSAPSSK
T2 sequence (P12391 31-464): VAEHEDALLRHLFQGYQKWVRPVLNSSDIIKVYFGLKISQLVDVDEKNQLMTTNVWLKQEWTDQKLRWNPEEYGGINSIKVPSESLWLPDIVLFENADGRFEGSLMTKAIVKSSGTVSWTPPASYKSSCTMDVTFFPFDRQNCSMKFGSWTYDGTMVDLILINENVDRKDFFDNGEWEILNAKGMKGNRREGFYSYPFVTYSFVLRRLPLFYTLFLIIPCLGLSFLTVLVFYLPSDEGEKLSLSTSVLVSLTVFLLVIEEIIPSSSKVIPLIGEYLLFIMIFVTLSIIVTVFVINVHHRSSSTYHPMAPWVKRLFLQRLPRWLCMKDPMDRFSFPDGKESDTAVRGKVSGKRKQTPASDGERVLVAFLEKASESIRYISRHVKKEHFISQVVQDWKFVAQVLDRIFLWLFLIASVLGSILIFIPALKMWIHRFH
T1 sequence (P43143+P04757 fused with the stated changes): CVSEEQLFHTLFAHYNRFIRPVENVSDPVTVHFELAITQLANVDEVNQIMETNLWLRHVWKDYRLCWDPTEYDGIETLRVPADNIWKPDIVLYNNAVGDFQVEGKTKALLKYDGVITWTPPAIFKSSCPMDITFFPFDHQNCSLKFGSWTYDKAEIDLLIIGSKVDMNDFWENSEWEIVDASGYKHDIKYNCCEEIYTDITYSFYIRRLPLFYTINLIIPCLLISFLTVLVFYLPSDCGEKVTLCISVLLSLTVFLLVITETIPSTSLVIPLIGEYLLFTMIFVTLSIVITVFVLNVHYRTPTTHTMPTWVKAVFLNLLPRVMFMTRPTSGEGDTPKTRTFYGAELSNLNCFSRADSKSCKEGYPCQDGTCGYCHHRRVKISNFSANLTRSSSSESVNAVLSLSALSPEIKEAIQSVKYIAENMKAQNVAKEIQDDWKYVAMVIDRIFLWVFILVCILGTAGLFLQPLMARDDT
T1 sequence (P12390 25-500): as the sequence (P12390 25-500) above
T1 sequence (P12391 31-464): as the sequence (P12391 31-464) above

With CCCCCCC(=O)OC1CC(C)(C)NC(C)(C)C1 [TMPH, 2,2,6,6-tetramethylpiperidin-4-yl heptanoate] the IC50 (Rat α6/3β2β3; [1]) was 1 ± 0.3 µM, the IC50 (Rat α6/3β2β3; [2]) was 60 ± 20 µM and the IC50 (Rat α6/3β2β3; [3]) was 2.3 ± 0.5 µM. The “IC50 net charge/IC50 peak” value (Rat α6/3β2β3; ratio) was “.017”, the “IC50 recovery/IC50 net charge” value (Rat α6/3β2β3; ratio) was 2.0 and the IC50 (Rat α3β2β3; [1]) was 2.7 ± 0.6 µM. For the same molecule, the IC50 (Rat α3β2β3; [2]) was 120 ± 80 µM, the IC50 (Rat α3β2β3; [3]) was 4.3 ± 1.5 µM and the “IC50 net charge/IC50 peak” value (Rat α3β2β3; ratio) was 0.025. For the same molecule, the “IC50 recovery/IC50 net charge” value (Rat α3β2β3; ratio) was 1.6.
